Data from paper PMC9574929, “Development of Hydrogen Sulfide-Releasing Carbonic Anhydrases IX- and XII-Selective Inhibitors with Enhanced Antihyperalgesic Action in a Rat Model of Arthritis” (Journal of Medicinal Chemistry, 2022).

Assays:
[1] = target: hCA XII (Homo sapiens, UniProt O43570); assay: Stopped-flow CO2 hydrase assay, hCA XII; conditions: for SI CA I/XII / SI CA II/XII: selectivity index, ratio of KIs
Procedure: (§1) The uncatalyzed rates were determined in the same manner and subtracted from the total observed rates. Stock solutions of inhibitor (0.1 mM) were prepared in distilled-deionized water and dilutions up to 0.01 nM were done thereafter with the assay buffer. […] The inhibition constants were obtained by nonlinear least-squares methods using PRISM 3 and the Cheng–Prusoff equation, as reported earlier,[39] and represent the mean from at least three different determinations.

[2] = target: hCA II (Homo sapiens, UniProt P00918); assay: Stopped-flow CO2 hydrase assay, hCA II; conditions: for SI CA I/II: selectivity index, ratio of KIs
Procedure: as §1

[3] = target: hCA IX (Homo sapiens, UniProt Q16790); assay: Stopped-flow CO2 hydrase assay, hCA IX; conditions: for SI CA I/IX / SI CA II/IX: selectivity index, ratio of KIs
[4] = target: hCA IV (Homo sapiens, UniProt P22748); assay: Stopped-flow CO2 hydrase assay, hCA IV; conditions: for SI CA I/IV / SI CA II/IV: selectivity index, ratio of KIs
hCA IV, sequence (P22748 19-312): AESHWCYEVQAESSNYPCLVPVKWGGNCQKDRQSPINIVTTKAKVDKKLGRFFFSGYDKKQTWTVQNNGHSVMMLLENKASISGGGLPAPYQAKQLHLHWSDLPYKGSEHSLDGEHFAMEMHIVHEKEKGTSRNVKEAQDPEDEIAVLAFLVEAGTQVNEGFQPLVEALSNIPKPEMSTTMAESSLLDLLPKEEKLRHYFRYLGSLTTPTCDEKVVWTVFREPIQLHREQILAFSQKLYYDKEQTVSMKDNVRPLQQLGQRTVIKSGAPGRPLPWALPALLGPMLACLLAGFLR

[5] = target: hCA I (Homo sapiens, UniProt P00915); assay: Stopped-flow CO2 hydrase assay, hCA I
hCA I, sequence (P00915 whole entry): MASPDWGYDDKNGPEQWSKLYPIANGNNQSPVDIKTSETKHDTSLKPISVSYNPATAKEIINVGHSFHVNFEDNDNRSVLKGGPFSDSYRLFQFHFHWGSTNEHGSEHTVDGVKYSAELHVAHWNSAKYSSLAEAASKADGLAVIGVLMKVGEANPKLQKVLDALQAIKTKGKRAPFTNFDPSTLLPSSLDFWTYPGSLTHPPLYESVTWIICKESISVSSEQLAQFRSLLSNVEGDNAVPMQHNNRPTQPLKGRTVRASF
Procedure: as §1

hCA XII, sequence (O43570 25-354): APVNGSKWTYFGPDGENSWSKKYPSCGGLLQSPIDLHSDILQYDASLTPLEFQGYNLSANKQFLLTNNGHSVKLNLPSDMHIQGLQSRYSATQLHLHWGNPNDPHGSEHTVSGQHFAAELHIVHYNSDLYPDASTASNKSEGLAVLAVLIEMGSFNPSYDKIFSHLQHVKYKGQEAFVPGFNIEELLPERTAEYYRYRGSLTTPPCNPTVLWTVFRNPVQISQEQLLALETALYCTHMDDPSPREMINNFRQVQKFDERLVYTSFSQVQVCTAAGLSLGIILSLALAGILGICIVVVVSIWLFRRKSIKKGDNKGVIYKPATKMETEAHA

Row | SMILES | Ki [1] [nM] | SI CA I/XII [1] | SI CA II/XII [1] | Ki [2] [nM] | SI CA I/II [2] | Ki [3] [nM] | SI CA I/IX [3] | SI CA II/IX [3] | Ki [4] [nM] | SI CA I/IV [4] | SI CA II/IV [4] | Ki [5] [nM] | melting point [°C]
1 | NS(=O)(=O)c1ccc(CCNCc2ccc(Cl)cc2)cc1 [Compound 6, 4-(2-((4-Chlorobenzyl)amino)ethyl)benzenesulfonamide] | 75.2 | 1.8 | 1.5 | 115 | 1.2 | 67.4 | 2.0 | 1.7 | 3680 | 0.04 | 0.03 | 136 | 
2 | NS(=O)(=O)c1ccc(CCNCc2ccc(Br)cc2)cc1 [Compound 7, 4-(2-((4-Bromobenzyl)amino)ethyl)benzenesulfonamide] | 83.6 | 2.6 | 2.3 | 189 | 1.1 | 86.4 | 2.5 | 2.2 | 5240 | 0.04 | 0.04 | 214 | 
3 | CN(C)c1ccc(CNCCc2ccc(S(N)(=O)=O)cc2)cc1 [Compound 9, 4-(2-((4-(Dimethylamino)benzyl)amino)ethyl)benzenesulfonamide] |  |  |  |  |  |  |  |  | 961 |  |  |  | 
4 | COc1cc([N+](=O)[O-])ccc1CNCCc1ccc(S(N)(=O)=O)cc1 [Compound 11, 4-(2-((2-Methoxy-4-nitrobenzyl)amino)ethyl)benzenesulfonamide] |  |  |  |  |  |  |  |  | 1860 |  |  | 145 | 
5 | COc1ccc(CNCCc2ccc(S(N)(=O)=O)cc2)cc1 [Compound 12, 4-(2-((4-Methoxybenzyl)amino)ethyl)benzenesulfonamide] | 57.2 |  |  |  |  |  |  |  | 1450 |  |  | 97.2 | 
6 | COc1ccc(CNCCc2ccc(S(N)(=O)=O)cc2)cc1OC [Compound 13, 4-(2-((3,4-Dimethoxybenzyl)amino)ethyl)benzenesulfonamide] | 51 | 0.9 | 1.5 | 75.2 | 1.2 | 103 | 0.9 | 0.7 | 1100 |  | 0.07 | 88.6 | 
7 | CSc1ccc(CNCCc2ccc(S(N)(=O)=O)cc2)cc1 [Compound 14, 4-(2-((4-(Methylthio)benzyl)amino)ethyl)benzenesulfonamide] | 88.6 |  |  |  |  | 112 |  |  | 2130 |  |  | 122 | 
8 | NS(=O)(=O)c1ccc(CCNCc2csc3ccccc23)cc1 [Compound 16, 4-(2-((Benzo[b]thiophen-3-ylmethyl)amino)ethyl)benzenesulfonamide] | 69.8 | 5.3 | 2.8 | 202 | 1.9 | 70.5 | 5.3 | 2.8 | 7240 | 0.05 | 0.03 | 374 | 

Continued, values first:

Row | Ki [1] [nM] | SI CA I/XII [1] | SI CA II/XII [1] | Ki [2] [nM] | SI CA I/II [2] | Ki [3] [nM] | SI CA I/IX [3] | SI CA II/IX [3] | Ki [4] [nM] | SI CA I/IV [4] | SI CA II/IV [4] | Ki [5] [nM] | melting point [°C] | SMILES
9 | 52.9 |  |  | 70.2 |  |  |  |  | 1780 |  |  | 91.4 |  | N#Cc1ccc(CNCCc2ccc(S(N)(=O)=O)cc2)cc1 [Compound 8, 4-(2-((4-Cyanobenzyl)amino)ethyl)benzenesulfonamide]
10 |  | 81.5 | 9.2 |  |  |  | 115 | 13.0 |  | <0.53 | <0.06 |  | 158 to 159 | NS(=O)(=O)c1ccc(CCN(Cc2ccc(F)cc2)C(=O)c2ccc(-c3cssc3=S)cc2)cc1 [Compound 20, N-(4-Fluorobenzyl)-N-(4-sulfamoylphenethyl)-4-(3-thioxo-3H-1,2-dithiol-4-yl)benzamide]
11 |  | 561 | 303 |  |  |  | 229 | 124 |  | 12.8 | 6.9 |  | 104 to 105 | NS(=O)(=O)c1ccc(CCN(Cc2ccc(Cl)cc2)C(=O)c2ccc(-c3cssc3=S)cc2)cc1 [Compound 21, N-(4-Chlorobenzyl)-N-(4-sulfamoylphenethyl)-4-(3-thioxo-3H-1,2-dithiol-4-yl)benzamide]
12 |  | 597 | 284 |  |  |  | 403 | 192 |  | 7.4 | 3.5 |  | 65 to 66 | NS(=O)(=O)c1ccc(CCN(Cc2ccc(Br)cc2)C(=O)c2ccc(-c3cssc3=S)cc2)cc1 [Compound 22, N-(4-Bromobenzyl)-N-(4-sulfamoylphenethyl)-4-(3-thioxo-3H-1,2-dithiol-4-yl)benzamide]
13 |  | >1136 | 548 |  |  |  | >248 | 120 |  | >216.4 | 104 |  | 251 to 252 | N#Cc1ccc(CN(CCc2ccc(S(N)(=O)=O)cc2)C(=O)c2ccc(-c3cssc3=S)cc2)cc1 [Compound 23, N-(4-Cyanobenzyl)-N-(4-sulfamoylphenethyl)-4-(3-thioxo-3H-1,2-dithiol-4-yl)benzamide]
14 |  | 448 | 105 |  |  |  | 188 | 43.9 |  | 1.2 | 0.3 |  | 185 to 186 | CN(C)c1ccc(CN(CCc2ccc(S(N)(=O)=O)cc2)C(=O)c2ccc(-c3cssc3=S)cc2)cc1 [Compound 24, N-(4-(Dimethylamino)benzyl)-N-(4-sulfamoylphenethyl)-4-(3-thioxo-3H-1,2-dithiol-4-yl)benzamide]
15 |  | 45.2 | 6.4 |  |  |  | 15.0 | 2.1 |  | 0.8 | 0.11 |  |  | N#CCCN(CCc1ccc(S(N)(=O)=O)cc1)C(=O)c1ccc(-c2cssc2=S)cc1 [Compound 33, N-(2-Cyanoethyl)-N-(4-sulfamoylphenethyl)-4-(3-thioxo-3H-1,2-dithiol-4-yl)benzamide]
